Each structure is given as a SMILES string. Values joined by “and” are separate entries in the source; they are usually repeats but may differ in a detail not shown here. Identical values can stand only once. Starred links: 1 amine or outer side, 2 acyl side, 3 side chain; linkers in the order of their positions; H or OH if unused. Positions of bridges follow the written chain, without caps; N, C: chain ends. Non-standard residues stand in square brackets, D forms with d. Residues, ends and D or L forms follow the SMILES beside them. X4 = CC(C)(C)OC(=O)/N=C(\N)N[C@@H]1C[C@@H](C(=O)[*:2])N([*:1])C1; Trp(2-yl) = O=C([C@H](Cc1c([*:3])[nH]c2ccccc12)N[*:1])[*:2]; Ile(4R-OH,5-OH) = C[C@H]([C@H](N)C(=O)O)[C@@H](O)CO; X3 = CC(=O)NCS[C@@H]1C[C@@H](C(=O)[*:2])N([*:1])C1; X5 = COC(=O)N[C@@H]1C[C@@H](C(=O)[*:2])N([*:1])C1 Bounds are passed on as bounds.

One series concerns CHO cells. Briefly: Viability assay against CHO cells (MTT colorimetric assay). It counts as cell-based, Chinese hamster. The conditions noted are these: 72 h, replicates n = 1, 2, 3. As to the method: (§1) (f) Cell culture: Cells were cultured in Minimum Essential Medium Eagle—Alpha Modification (α-MEM) or […] Dulbecco's Modified Eagle Medium (DMEM), purchased from Gibco. […] All cell culture plastic ware was obtained from Coming or Falcon. Cells were cultured at 37° C. in a humidified chamber with 5% CO2. When used in cell culture, DMSO was purified by filtration through a […] filter. All experiments were carried out in a laminar flow culture cabinet, unless otherwise noted.
(§2) Immortalized CHO cells had been stored in liquid nitrogen. To revive cells, a 1-mL tube of the frozen cells in medium containing 10% DMSO was warmed in a 30° C. water bath and diluted with 9 mL of fresh media. Media contained 10% FBS and 100 U/mL penicillin and […] streptomycin, unless otherwise indicated. The cells were incubated in a T-25 flask at 37° C. at 5% CO2. After 24 hours, the medium was aspirated and replaced with fresh medium. When cells reached a level of 90-100% confluence, they were sub-cultured. […] Once the cells were detached from the tissue culture flask, 3-5 mL media was added to quench the trypsin and the mixture was transferred to a 10 mL centrifuge tube. The mixture was centrifuged for 5 min at […], and the supernatant was discarded. The cells were suspended in fresh medium, diluted as required, and transferred to a new culture flask.
(§3) To assay cell viability, a nearly confluent tissue culture flask was trypsinized, and the cells were counted following treatment with Trypan blue, using a hemocytometer. The cells were then diluted to the appropriate stock concentrations in fresh medium and transferred in 100 μL to a 96-well plate using a multi-channel pipette. The number of cells plated varied from experiment to experiment. These were incubated at 37° C. and 5% CO2 for a 24-hour period to allow for adherence. The medium was aspirated, and fresh medium was added, which contained the desired additives in DMSO. The cells were then re-incubated for 72 h. At the completion of the experiment, a 100 μL aliquot of 25 mg/mL MTT in phosphate-buffered saline (PBS) was added to each well. The plate was incubated three hours further to allow for the formation of the formazan product in viable cells. The media was carefully aspirated, and the purple product was solubilized in DMSO. […] Data was processed in Microsoft Excel and GraphPad Prism. Experiments were performed in triplicates unless otherwise noted, and the error bars were calculated as the standard error of the mean.
(§4) Each cell line was plated in a 96-well plate, with 100 μL of the stock solution per well (5000 cells per well) and incubated for 24 hours. […] The cells were incubated for 72 hours, at which point viability was assessed as described.

Another series deals with T1, Pol II (Homo sapiens, UniProt P24928).
T1 construct: HeLaScribe® nuclear extract containing Pol II and all other transcription factors; purchased Promega; host or cells: HeLa nuclear extract (endogenous protein)
Briefly: In vitro transcription runoff assay using HeLaScribe nuclear extract. The following applies: for IC50: IC50 (nM), Table 12, n = 3, high values estimated from activity at [I]=1.0 μM. It counts as biochemical. The source says:
(h) In vitro transcription assay of synthetic amanitins containing analogs of Hyp: Primers were purchased from IDT via standard phosphoramidite chemistry. dNTP and rNTP were purchased from Thermofisher. GoTaq polymerase and HeLaScribe*Nuclear Extract in vitro Transcription System was purchased from Promega. Taq polymerase was purchased from NEB. [^32P] α-dGTP (3000 Ci/mmol 10 mCi/ml EasyTide) and [^32P] α-GTP (3000 Ci/mmol 10 mCi/ml EasyTide) were purchased from Perkin Elmer. QIAquick PCR purifcation kit was purchased from Qiagen. AcGFP1-N1 was a gift (Addgene plasmid #54705; http://n2t.net/addgene:54705; RRID:Addgene_54705). DNA Primer sequences were:
The DNA template for transcription runoff was synthesized by PCR with template pAcGFP-N1, and primers P1 and P2. To a final volume of 20 μL, 1 x GoTaq Buffer, 250 μM of each dNTP, 500 nM of each primers P1 and P2, […] pAcGFP-N1 and 0.05 U/μL GoTaq were employed to thermocycle for 30 cycles (30 s at 95° C., 30 s at 50° C. and 60 s at 72° C., Bio-Rad). A 1 μL aliquot of the amplified solution was resolved with 6×DNA loading dye in a 1% agarose gel containing […] and then visualized using GelDoc XR imager (Bio-Rad). Purification was completed via QIAquick PCR purification kit (Qiagen). The radioactive chromatographic standard was synthesized by PCR with template pAcGFP-N1, and primers P3 and P4. To a final volume of 50 μL, 1 x Thermopol Buffer, 200 μM of each dNTP, 500 nM of each primers P3 and P4, 10 pg/μL pAcGFP-N1 and 0.02 U/μL Vent polymerase, 1 μL [^32P] α-dGTP were employed to thermocycle for 30 cycles (30 s at 95° C., 30 s at 62° C. and 30 s at 72° C., Bio-Rad). A 1 μL aliquot of the amplified solution was resolved with 6×DNA loading dye in 8% denaturing PAGE and then visualized by autoradiography via the Typhoon 9200 imager (Molecular namics-Amersham-GE). Purification was completed via QIAquick PCR purification kit (Qiagen). The transcription runoff assay was modified from HeLaScribe® Nuclear Extract in vitro Transcription System (Promega). […]. The pellet was resolved by 8% denaturing PAGE and then visualized by autoradiography via the Typhoon 9200 imager (Molecular dynamics-Amersham-GE). Dosimetry was calculated by ImageJ, and the 3 parameter logistic fit was completed by Origin 2019 (OriginLab). […]
All data were presented in mean±standard deviation (n=3).

The nature of series [1]: Viability assay against CHO cells (MTT colorimetric assay). It counts as cell-based, Chinese hamster. The following applies: Chinese hamster, CHO cells, 72 h, replicates n = 1, 2, 3, read-out: % viable cells; for viability at 72 h, 1.25e-06 M: 1.25e-006 M; for viability at 72 h, 1.56e-07 M: 1.56e-007 M; for viability at 72 h, 2.5e-06 M: 2.5e-006 M; for viability at 72 h, 5e-06 M: 5e-006 M; for viability at 72 h, 6.25e-07 M: 6.25e-007 M; for viability at 72 h, 7.8e-08 M: 7.8e-008 M. The protocol:
as §1, §2, §3, §4

Consider `CC[C@H](C)[C@@H]1NC(=O)CNC(=O)[C@@H]2Cc3c([nH]c4ccccc34)SC[C@H](NC(=O)CNC1=O)C(=O)N[C@@H](CC(N)=O)C(=O)N1C[C@H](SCNC(C)=O)C[C@H]1C(=O)N[C@@H]([C@@H](C)[C@@H](O)CO)C(=O)N2` [Compound 8, SAcm-Pro-amanitin] (cyclo(CN[X3][Ile(4R-OH,5-OH)][Trp(2-yl)]GIG); thioether 1-5), for which the “% viable cells” value was 90% and 99% in the series on CHO cells (1e-005 M, listed as SAcm-Pro-amanitin (8)); 85% and 92% and 106% with CHO cells (1.25e-006 M, listed as SAcm-Pro-amanitin (8)); 94% and 93% and 113% in the series on CHO cells (1.56e-007 M, listed as SAcm-Pro-amanitin (8)); 110% and 105% and 99% with CHO cells (2e-005 M, listed as SAcm-Pro-amanitin (8)); 87% and 92% and 105% in the series with CHO cells (2.5e-006 M, listed as SAcm-Pro-amanitin (8)); 88% and 93% and 110% in the series with CHO cells (3.125e-007 M, listed as SAcm-Pro-amanitin (8)). The “% viable cells” value with CHO cells (5e-006 M, listed as SAcm-Pro-amanitin (8)) is 86% and 89%; in the series on CHO cells (6.25e-007 M, listed as SAcm-Pro-amanitin (8)), 93% and 90% and 108%. For the same molecule, the IC50 at Pol II was > 1000 nM.

Regarding `CC[C@H](C)[C@@H]1NC(=O)CNC(=O)[C@@H]2Cc3c([nH]c4ccccc34)SC[C@H](NC(=O)CNC1=O)C(=O)N[C@@H](CC(N)=O)C(=O)N1C[C@H](N/C(N)=N/C(=O)OC(C)(C)C)C[C@H]1C(=O)N[C@@H]([C@@H](C)[C@@H](O)CO)C(=O)N2` [Compound 9, Boc-Gdn-Pro-amanitin] (cyclo(CN[X4][Ile(4R-OH,5-OH)][Trp(2-yl)]GIG); thioether 1-5), the viability at 72 h, 1.25e-06 M in series [1] was 84%. Moreover, the viability at 72 h, 1.56e-07 M in series [1] turned out to be 87%. In series [1], the viability at 72 h, 2.5e-06 M amounted to 86%. The viability at 72 h, 3.9e-08 M in series [1] (3.9e-008 M) was 88%. Besides, the viability at 72 h, 5e-06 M in series [1] stood at 86%. The viability at 72 h, 6.25e-07 M in series [1] amounted to 84%. The viability at 72 h, 7.8e-08 M in series [1] was 85%. Also, the “% viable cells” value in the series with CHO cells (1e-005 M, listed as Boc-Gdn-Pro-amanitin (9)) is 103% and 98% and 119%; with CHO cells (1.25e-006 M, listed as Boc-Gdn-Pro-amanitin (9)), 89% and 100%; in the series with CHO cells (1.56e-007 M, listed as Boc-Gdn-Pro-amanitin (9)), 97%; in the series with CHO cells (2.5e-006 M, listed as Boc-Gdn-Pro-amanitin (9)), 100%; in the series with CHO cells (3.125e-007 M, listed as Boc-Gdn-Pro-amanitin (9)), 82% and 90% and 103%; with CHO cells (3.9e-008 M, listed as Boc-Gdn-Pro-amanitin (9)) it was 102%. The “% viable cells” value was found to be 104% in the series with CHO cells (5e-006 M, listed as Boc-Gdn-Pro-amanitin (9)); 102% in the series on CHO cells (6.25e-007 M, listed as Boc-Gdn-Pro-amanitin (9)); 101% with CHO cells (7.8e-008 M, listed as Boc-Gdn-Pro-amanitin (9)). On Pol II, the IC50 is > 600 nM. The “inhibitory effects” value against Pol II (up to 1 μM concentrations) is on record as “did not exhibit any noticeable inhibitory effects”.

On to `CC[C@H](C)[C@@H]1NC(=O)CNC(=O)[C@@H]2Cc3c([nH]c4ccccc34)SC[C@H](NC(=O)CNC1=O)C(=O)N[C@@H](CC(N)=O)C(=O)N1C[C@H](NC(=O)OC)C[C@H]1C(=O)N[C@@H]([C@@H](C)[C@@H](O)CO)C(=O)N2` [Compound 32, MeOCONH-Pro-amanitin] (cyclo(CN[X5][Ile(4R-OH,5-OH)][Trp(2-yl)]GIG); thioether 1-5), for which, in series [1] (1e-005 M), the viability at 72 h, 1e-05 M came to 86%. The viability at 72 h, 1.25e-06 M in series [1] stood at 89%. Further, in series [1], the viability at 72 h, 1.56e-07 M came out at 88%. The viability at 72 h, 2e-05 M in series [1] (2e-005 M) is 99%. Also, in series [1], the viability at 72 h, 2.5e-06 M is 88%. Moreover, the viability at 72 h, 3.125e-07 M in series [1] (3.125e-007 M) stood at 89%. Besides, the viability at 72 h, 5e-06 M in series [1] is 92%. Further, the viability at 72 h, 6.25e-07 M in series [1] turned out to be 91%. Further, in series [1], the viability at 72 h, 7.8e-08 M worked out at 88%. In addition, the “% viable cells” value in the series on CHO cells (1e-005 M, listed as MeOCOHN-Pro-amanitin (32)) is 96%; in the series with CHO cells (1.25e-006 M, listed as MeOCOHN-Pro-amanitin (32)), 93%; in the series with CHO cells (1.56e-007 M, listed as MeOCOHN-Pro-amanitin (32)), 87% and 96%; in the series with CHO cells (2e-005 M, listed as MeOCOHN-Pro-amanitin (32)) it was 103% and 102%; in the series with CHO cells (3.125e-007 M, listed as MeOCOHN-Pro-amanitin (32)), 87% and 94%; in the series on CHO cells (5e-006 M, listed as MeOCOHN-Pro-amanitin (32)), 87%. Also, the “% viable cells” value with CHO cells (6.25e-007 M, listed as MeOCOHN-Pro-amanitin (32)) is listed as 98%; in the series on CHO cells (7.8e-008 M, listed as MeOCOHN-Pro-amanitin (32)), 97%.

The values above are taken from patent US20240082416A1, “AMATOXIN ANALOGS AND USES THEREOF” (THE UNIVERSITY OF BRITISH COLUMBIA, priority 2020, published 2024).
